“Also recorded” adds a separate entry of the source.
Assays:
[1] = test system: neonatal rat model of necrotizing enterocolitis; assay: Neonatal rat model of necrotizing enterocolitis: clinical (macroscopic) assessment of small intestine on autopsy; assay type: in vivo; details: for discoloration (visual assessment of luminal blood) / stenosis: FIG. 3; for clinical scoring on autopsy (overall clinical appearance, pathology/damage scores): FIG. 2
Method: (§1) These studies utilized a well-validated neonatal rat model of necrotizing enterocolitis (14). Briefly, neonatal Sprague-Dawley rats (Charles River Laboratories Inc., Wilmington, Mass.) were collected from their mothers immediately after birth, prior to suckling maternal milk. Animals were weighed and placed in infant incubators to control body temperature. Subsequently, rats were hand fed via the orogastric route 0.1 ml of rat milk substitute (RMS) consisting of prepared infant formula (Esbilac formula, Pet-Ag, New Hampshire, Ill.) plus or minus the therapeutic supplement every three hours. EGF (Austral Biologics, San Ramon, Calif.) was produced by genetically engineered yeast and purified by sequential chromatography and reverse phase high pressure liquid chromatography (HPLC) and determined to be >97% pure by N-terminal amino acid sequencing, amino acid composition, HPLC analysis and SDS gel electrophoresis. Arginine (L-arginine hydrochloride, crystalline, ICN Biomedicals Inc, Aurora, Ohio) was produced by a proprietary synthetic process. EGF (100 ng/ml) and L-arginine (1.35-2.7 mg/ml) were admininstered based on daily feed intake to achieve a dose of 1.5 mmol/kg/day of L-arginine (in standardized units these doses work out to ˜20 ug EGF/kg/day and ˜316 mg L-arginine/kg/day, for a ratio of about 1:472 500 mole/mole). The EGF and L-arginine were gently vortexed and thoroughly mixed into the Esbilac infant formula. After 48 hrs of feeding, volumes were advanced slowly to 0.3 ml as tolerated. To induce clinical disease rats were stressed twice daily with asphyxia by breathing 100% nitrogen gas for 60 sec followed by cold stress at 4° C. for 10 min starting one hour after birth.
Six separate experimental groups were studied: unstressed rats artificially fed with EGF-free rat milk substitute (RMS) (Control, n=10); stressed rats that were dam-fed (Control (s), n=7); stressed rats artificially fed EGF-free RMS (NEC, n=10); stressed rats artificially fed RMS supplemented with 100 ng/ml recombinant human EGF (EGF-NEC, n=6); stressed rats artificially fed RMS supplemented with 1.5 mmol L-arginine/kg/day (ARG-NEC, n=6); and stressed rats artificially fed RMS supplemented with 100 ng/ml recombinant human EGF+1.5 mmol L-arginine/kg/day (EGF/ARG-NEC, n=8). Animals that developed abdominal distension, respiratory distress or lethargy during the 96-hour course of the experiment were terminated. After 96 hours all surviving animals were killed by decapitation and the small intestine removed for further analysis.
(§2) Body weights and tail lengths were recorded daily, and twice daily urination and defecation was induced by gentle stimulation of the anogenital region and stool collected for future analysis. The small intestine was visually assessed for clinical signs of NEC such as intestinal hemorrhage and discoloration, and ileal distension and stenosis. The small intestine was then divided into two halves and 2-3 cm of tissue from the distal segment (ileum) fixed, embedded in paraffin, and counterstained with hematoxylin and eosin for histological evaluation of NEC (14). Histology was evaluated in a blinded manner and graded as follows: normal (0) showing no damage; mild (+1) showing slight submucosal and/or lamina propria separation (+2); moderate (+2) displaying moderate separation of the submucosa and/or lamina propria, and/or edema in the submucosal and muscular layers; severe (+3) showing severe separation of submucosa and/or lamina propria, and/or severe edema in the submucosal and muscular layers, and regional villus sloughing; necrosis (+4) displaying loss of villi and necrosis (14). The length of the remaining ileum was measured and the tissue homogenized in 2.5 mM ethylenediaminetetraacetic acid (EDTA), snap frozen in liquid nitrogen, and stored at […] for later analysis of lactase activity (21) and ileal protein (5) and DNA (3 1) content.
(§3) Data are expressed as means ±SE. […]

[2] = test system: neonatal rat model of necrotizing enterocolitis; assay: Neonatal rat model of necrotizing enterocolitis: histological evaluation of distal ileal tissue; assay type: in vivo; details: for histological damage scores: distal ileal tissue, compared to NEC animals, FIG. 5; for appearance of ileal tissue sections (photomicrographs): distal ileum, hematoxylin and eosin, FIG. 4
Method: as §1, with “To induce clinical disease rats were stressed twice daily with asphyxia by breathing 100% nitrogen gas for 60 sec followed by cold stress at 4° C. for 10 min starting one hour after birth.” left out
as §2, with “The small intestine was then divided into two halves and 2-3 cm of tissue from the distal segment (ileum) fixed, embedded in paraffin, and counterstained with hematoxylin and eosin for histological evaluation of NEC (14).” left out
as §3

[3] = test system: lactase; assay: Neonatal rat model of necrotizing enterocolitis: total lactase activity in distal ileal tissue; assay type: in vivo; details: compared to untreated NEC rats, FIG. 6
Method: These studies utilized a well-validated neonatal rat model of necrotizing enterocolitis (14). Briefly, neonatal Sprague-Dawley rats (Charles River Laboratories Inc., Wilmington, Mass.) were collected from their mothers immediately after birth, prior to suckling maternal milk. Animals were weighed and placed in infant incubators to control body temperature. Subsequently, rats were hand fed via the orogastric route 0.1 ml of rat milk substitute (RMS) consisting of prepared infant formula (Esbilac formula, Pet-Ag, New Hampshire, Ill.) plus or minus the therapeutic supplement every three hours. EGF (Austral Biologics, San Ramon, Calif.) was produced by genetically engineered yeast and purified by sequential chromatography and reverse phase high pressure liquid chromatography (HPLC) and determined to be >97% pure by N-terminal amino acid sequencing, amino acid composition, HPLC analysis and SDS gel electrophoresis. […]
Body weights and tail lengths were recorded daily, and twice daily urination and defecation was induced by gentle stimulation of the anogenital region and stool collected for future analysis. The small intestine was visually assessed for clinical signs of NEC such as intestinal hemorrhage and discoloration, and ileal distension and stenosis. […]
as §3

[4] = test system: necrotizing enterocolitis; details: 152 infants, birthweight ≦1250 g, gestational age ≦32 weeks; dietary L-arginine supplementation; reduced from 27%; cited from earlier work
[5] = test system: neonatal piglet model of NEC; details: infusion; cited from earlier work
[6] = test system: necrotizing enterocolitis; details: cited from earlier work
[7] = stressed neonatal rats, RMS with EGF 100 ng/ml and/or L-arginine 1.5 mmol/kg/day, 96 h, compared to untreated (NEC) group

N=C(N)NCCCC(N)C(=O)O (stereo not shown) [Arg, 2-amino-5-guanidinovaleric acid]
discoloration (visual assessment of luminal blood) ([1]; compared to controls): significantly elevated
stenosis ([1]; compared to controls): significant stenosis
discoloration (visual assessment of luminal blood) ([1]; compared to untreated group): significantly less discoloration than observed in the untreated group
discoloration (visual assessment of luminal blood) ([1]; compared to untreated group, listed as L-arginine): decreased the appearance of blood in the lumen
clinical scoring on autopsy (overall clinical appearance, pathology/damage scores) [1, 7]: did not differ
histological damage scores [2]: did not differ
appearance of ileal tissue sections (photomicrographs) [2]: Significant damage
total lactase activity [3]: did not alter the deficit in lactase activity
incidence of NEC [4]: 7%
intestinal injury [5]: markedly reduced intestinal injury

EGF: 53-amino acid protein, human EGF sequence SEQ ID NO: 1, produced by genetically engineered yeast (Austral Biologics)
discoloration (visual assessment of luminal blood) ([1]; compared to controls): significantly elevated
stenosis ([1]; compared to controls): significant stenosis
clinical scoring on autopsy (overall clinical appearance, pathology/damage scores) ([1]; same treatment, compared to control animals): still significantly increased over control animals
clinical scoring on autopsy (overall clinical appearance, pathology/damage scores) [1, 7]: significantly less than that observed in the untreated (NEC) group; also recorded: some protection against physical damage to the intestine
histological damage scores [2]: did not differ
appearance of ileal tissue sections (photomicrographs) [2]: Significant damage
total lactase activity [3]: did not alter the deficit in lactase activity
protective effect ([6]; EGF at 500 ng/ml): protective effect
clinical benefit ([6]; EGF at physiological concentration of 100 ng/ml): no significant clinical benefit

— patent publication US20070254837A1, “Treatment for Necrotizing Enterocolitis” (UNIVERSITY TECHNOLOGIES INTERNATIONAL INC., priority 2003, published 2007)
